{
  "source": "patent US20130012485A1",
  "about": "“ORGANIC COMPOUNDS” (priority 2006, published 2013)",
  "data": [
    {"target": "T1, human DPP-IV (Homo sapiens, UniProt P27487)", "T1 construct": "Human DPP-IV consisting of amino acids 39 to 766 followed by a C-terminal Streptavidin-tag; Streptavidin-tag (C); made in house", "T1 sequence (P27487 39-766)": "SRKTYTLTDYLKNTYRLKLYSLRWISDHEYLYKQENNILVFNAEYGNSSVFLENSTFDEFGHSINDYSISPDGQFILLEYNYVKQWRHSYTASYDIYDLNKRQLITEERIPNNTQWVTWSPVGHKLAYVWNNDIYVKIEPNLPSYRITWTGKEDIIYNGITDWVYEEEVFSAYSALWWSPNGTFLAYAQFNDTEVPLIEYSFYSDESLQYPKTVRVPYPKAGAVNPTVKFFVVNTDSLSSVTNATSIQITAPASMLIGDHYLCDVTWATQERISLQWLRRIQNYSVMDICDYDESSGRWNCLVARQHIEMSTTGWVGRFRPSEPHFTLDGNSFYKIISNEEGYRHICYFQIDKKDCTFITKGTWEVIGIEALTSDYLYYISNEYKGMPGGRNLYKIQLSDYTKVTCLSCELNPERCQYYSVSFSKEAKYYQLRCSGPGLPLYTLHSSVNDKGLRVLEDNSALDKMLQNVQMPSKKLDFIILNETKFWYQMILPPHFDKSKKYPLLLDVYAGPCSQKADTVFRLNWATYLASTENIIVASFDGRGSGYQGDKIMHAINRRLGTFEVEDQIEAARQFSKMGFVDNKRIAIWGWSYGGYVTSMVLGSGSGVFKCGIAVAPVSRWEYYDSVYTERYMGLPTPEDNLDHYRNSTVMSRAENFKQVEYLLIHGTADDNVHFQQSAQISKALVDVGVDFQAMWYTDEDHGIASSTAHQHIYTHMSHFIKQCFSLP", "test": "Activity assay: inhibitory activity to human DPP-IV, fluorogenic substrate H-Gly-Pro-AMC", "assay_type": "biochemical", "details": "H-Gly-Pro-AMC 10 μM, room temperature, monitored for 1 hour", "description": "Various Example compounds were tested for their inhibitory activity to human DPP-IV.\nHuman DPP-IV consisting of amino acids 39 to 766 followed by a C-terminal Streptavidin-tag was expressed using the baculovirus system and purified to >80% purity. The enzyme was stored in 25 mM Tris buffer, pH 9.0, containing 300 mM NaCl at −80° C.\nThe fluorogenic substrates H-Gly-Pro-AMC was purchased from Bachem AG (Bubendorf, Switzerland). The substrate was kept as a 5 mM stock solution in DMSO at −20° C. All other chemicals were purchased from Sigma (Buchs, Switzerland).\nThe assay buffer for the DPP-IV reaction was 25 mM Tris/HCl, pH 7.5, containing 140 mM NaCl, 10 mM KCl and 0.05% (w/v) CHAPS.\nThe test compounds were dissolved in 90% DMSO/10% H2O (v/v). Serial dilutions of the compounds from 3 mM to 0.03 μM in 90% DMSO/10% H2O (v/v) followed by a 1:33.3 dilution in assay buffer was done in 96-well polypropylene plates using a CyBio Dilus 8-channel pipettor (CyBio AG, Jena, Germany) with tip change after each pipetting step. The compound solutions as well as the substrate and the enzyme solutions were transferred to the assay plates (384-well black Cliniplate; cat. no. 95040020 Labsystems Oy, Finland) by means of a CyBi-Well 96-channel pipettor (CyBio AG, Jena, Germany).\nEnzyme kinetics were measured by mixing 10 μl of a 3-fold concentrated substrate solution in assay buffer (final substrate concentration was 10 μM) with 10 μl of the corresponding compound solution. The reactions were initiated by addition of 10 μl of a 3-fold concentrated solution of the enzyme in assay buffer. Final enzyme (active site) concentrations in the assay was […] for DPP-IV. Fluorescence product (AMC) formation was monitored for 1 hour at room temperature at 35 second intervals by measuring the fluorescence emission at 500 nm using an exitation wavelength of 350 nm in a TECAN Ultra fluorescence reader (TECAN, Maennedorf, Switzerland). The fluorescence in each well was excited by one flash per measurement. The Origin software package (Origin 7.5 Mircocal, Northampton, Mass., USA) was used to generate all graphs and to perform the IC50 calculations.", "units": {"IC50": "nM"}, "values": [
      {"smiles": "NC[C@]1(c2cccc(Cl)c2)CC[C@H](N2C(=O)OC[C@H]2Cc2ccccc2)CC1", "IC50": 200},
      {"smiles": "Cn1ccc2cc(C(=O)N[C@H]3CC[C@](CN)(c4cccc(Cl)c4)CC3)ccc21", "IC50": 50},
      {"smiles": "NC[C@]1(c2cccc(Cl)c2)CC[C@H](n2nc(-c3cnn(Cc4ccccc4)c3)ccc2=O)CC1", "IC50": 500},
      {"smiles": "CC1CC(=O)N([C@]2(CN)CC[C@@H](N3CCn4c(nnc4C(F)(F)F)C3)CC2)C1", "note": "(stereo partly drawn)", "IC50": 850},
      {"smiles": "Cc1n[nH]c(C)c1CCn1cc(-c2ccc(=O)n([C@H]3CC[C@](CN)(c4cccc(Cl)c4)CC3)n2)nn1", "IC50": 850},
      {"smiles": "CS(=O)(=O)c1ccc(CN[C@H]2CC[C@](CN)(c3cccc(Cl)c3)CC2)cc1", "IC50": 400},
      {"smiles": "CCOC(=O)N1CCC(N2CC(=O)N([C@H]3CC[C@](CN)(c4cccc(Cl)c4)CC3)CC2=O)CC1", "IC50": 100},
      {"smiles": "Cc1cccc(C2(CN)CCC(N3CCn4c(nnc4C(F)(F)F)C3)C2)c1", "note": "(stereo not drawn)", "IC50": 5050},
      {"smiles": "Cc1ccnc([C@]2(CN)CC[C@@H](N3CCn4c(nnc4C(F)(F)F)C3)CC2)c1", "IC50": 250},
      {"smiles": "NC[C@]1(c2cccc(Cl)c2)CC[C@H](N(Cc2ccn[nH]2)C(=O)c2cccnc2)CC1", "IC50": 450},
      {"smiles": "Cc1nc(=O)c2c([nH]1)CCC(CN)(c1cccc(Cl)c1)C2", "note": "(stereo not drawn)", "IC50": 11600},
      {"smiles": "NCC1(c2cccc(Cl)c2)CCC(Oc2ccc(Br)cn2)CC1", "note": "(stereo not drawn)", "IC50": 200}
    ]}
  ]
}
